Values of other authors as cited in patent publication US20060122197A1, “Amido compounds and their use as pharmaceuticals” (priority 2004, published 2006).

Target: T1, 11βHSD1 in the eye (Homo sapiens, UniProt P28845)
T1 construct: host or cells: eye of healthy volunteers (in vivo)
Conditions: healthy volunteers; after seven days of carbenoxolone treatment

T1 sequence (P28845 whole entry): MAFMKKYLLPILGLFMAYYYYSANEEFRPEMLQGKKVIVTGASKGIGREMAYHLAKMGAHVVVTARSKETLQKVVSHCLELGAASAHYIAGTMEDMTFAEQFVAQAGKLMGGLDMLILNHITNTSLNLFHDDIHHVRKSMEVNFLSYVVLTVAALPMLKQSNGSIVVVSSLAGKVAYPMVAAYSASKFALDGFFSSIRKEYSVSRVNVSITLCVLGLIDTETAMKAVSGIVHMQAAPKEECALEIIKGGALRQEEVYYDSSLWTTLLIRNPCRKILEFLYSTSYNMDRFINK

IOP was reduced by: 18%
SMILES: CC1(C)[C@@H](OC(=O)CCC(=O)O)CC[C@]2(C)[C@H]3C(=O)C=C4[C@@H]5C[C@@](C)(C(=O)O)CC[C@]5(C)CC[C@@]4(C)[C@]3(C)CC[C@@H]12 [carbenoxolone]
